Source: US20220125772A1, “A2A ANTAGONISTS AS COGNITION AND MOTOR FUNCTION ENHANCERS” (Biotie Therapies, Inc., priority 2010, published 2022)

Tests used:
Format in all cases: in vivo, human
[1] = tested on: Parkinson's disease (PD) patients; assay: Go/No-Go (GNG) Test in Parkinson's disease patients, double-blind crossover study; settings: for GNG reaction times: vs placebo plus levodopa
From the text: (§1) Continuous performance testing, in various forms, has become a standard clinical procedure. Generally speaking, continuous performance testing evaluates a subject's visual attention by displaying a series of visual stimuli, to which the subject is instructed to respond. In a typical case, often referred to as a “Go—No Go” test, the stimuli are of two types (the “Go” and “No Go” stimuli); the subject is instructed to respond only to the “Go” stimulus, and not to respond or “pass” when presented with the “No Go” stimulus. Data collected for each stimulus presented consists of the type of the stimulus; whether or not the subjects responded; and, if so, how long they took to respond. The continuous performance test has been in use since the 1950s.
(§2) Parkinson's disease (PD) patients participated in a double-blind, crossover study to assess the effect of co-administration of an A2a antagonist with a dopamine precursor on cognition and motor function. The A2a antagonist was 4-hydroxy-4-methyl-piperidine-1-carboxylic acid-(4-methoxy-7-morpholin-4-yl-benzothiazol-2-yl)-amide and the dopamine precursor was levodopa.
(§3) The patients were randomly allocated to 1 week of 4-hydroxy-4-methyl-piperidine-1-carboxylic acid-(4-methoxy-7-morpholin-4-yl-benzothiazol-2-yl)-amide and levodopa, 1 week washout (levodopa only), then 1 week placebo plus levodopa or the reverse order. Optimal levodopa doses were established for each patient according to normal clinical practice. Active drug was administered at 60 mg bid (N=14) or 20 mg bid (N=12) of 4-hydroxy-4-methyl-piperidine-1-carboxylic acid-(4-methoxy-7-morpholin-4-yl-benzothiazol-2-yl)-amide. At the end of each treatment week, participants completed motor assessments, a Continuous Performance Test (CPT), a Go/No-Go (GNG) Test, and a 2-Back Test after overnight withdrawal of levodopa and again after intravenous (IV) infusion of a suboptimal level of levodopa.
Subjects monitored a visual display while single uppercase letters were presented one at a time interspersed with the number “5”. Participants were instructed to push a target response button at the occurrence of every letter (i.e., a “Go” response) but to withhold a response for the number 5 (i.e., a “No-Go” response). Target frequency was manipulated in a blocked fashion, with two levels of target frequency (83% letters: 17% “5”s; 50% letters: 50% “5”s).

[2] = tested on: Parkinson's disease (PD) patients; assay: 2-Back Test in Parkinson's disease patients, double-blind crossover study; settings: either dose (60 mg bid, 20 mg bid) with levodopa; all p-values>0.05
From the text: as §2, §3

[3] = tested on: Parkinson's disease (PD) patients; assay: Continuous Performance Test (CPT) in Parkinson's disease patients, double-blind crossover study; settings: either dose (60 mg bid, 20 mg bid) with levodopa; all p-values>0.05
From the text: as §1, §2
The patients were randomly allocated to 1 week of 4-hydroxy-4-methyl-piperidine-1-carboxylic acid-(4-methoxy-7-morpholin-4-yl-benzothiazol-2-yl)-amide and levodopa, 1 week washout (levodopa only), then 1 week placebo plus levodopa or the reverse order. […]

[4] = tested on: Parkinson's disease (PD) patients; assay: Participant-reported sleepiness in Parkinson's disease patients, double-blind crossover study; settings: compared to placebo
From the text: as §2, §3

[5] = tested on: Parkinson's disease (PD) patients; assay: Motor assessments (tapping speed, UPDRS item) in Parkinson's disease patients, double-blind crossover study
From the text: as §2, §3

[6] = FIG. 1 legend, A2a antagonist compared with placebo, dose not stated

How did the GNG reaction times ([1]; 20 mg bid for 1 week with levodopa, p=0.05, N=12) turn out when `COc1ccc(N2CCOCC2)c2sc(NC(=O)N3CCC(C)(O)CC3)nc12` [4-hydroxy-4-methyl-piperidine-1-carboxylic acid-(4-methoxy-7-morpholin-4-yl-benzothiazol-2-yl)-amide] was run?
The GNG reaction times was “faster GNG reaction times”.

What about the GNG accuracy ([1]; 60 mg bid and 20 mg bid with levodopa, ps>0.25) of the same compound?
The GNG accuracy was “without reduced accuracy”.

What about the GNG reaction times ([1]; 60 mg bid for 1 week with levodopa, p<0.01, N=14) of the same compound?
The GNG reaction times was “faster GNG reaction times”.

What about the “Go/No-Go task mistakes (FIG. 1)” value [1, 6] of the same compound?
The value was “fewer mistakes”.

What about the “Go/No-Go task reaction time (FIG. 1)” value [1, 6] of the same compound?
Its value is “reaction times are faster”.

What about the “effect on the 2-Back test” value [2] of the same compound?
Its value is “no significant effects”.

And the “effect on the CPT test” value [3]?
The value was “no significant effects”.

What about the reported sleepiness ([4]; 20 mg bid, p>0.05) of the same compound?
The reported sleepiness was “no significant difference”.

And the reported sleepiness ([4]; 60 mg bid, before and after levodopa, p<0.05)?
The reported sleepiness was “less sleepiness”.

And the “rapidly alternating hand movements item from the UPDRS” value ([5]; 60 mg bid and levodopa, p=0.03)?
The value was “significant”.

What about the tapping speed ([5]; 60 mg bid, before and after levodopa, p: 0.05) of the same compound?
Its tapping speed is “significant motor benefit”.
